Our source for the GI50, TGI and CC50 values is ChEMBL document CHEMBL1143705, “Cytotoxic dibromotyrosine-derived metabolites from the sponge Aplysina gerardogreeni” (2007).

Common to all, as to assay type: functional
Common to all, as to conditions: for CC50: read-out: LC50 (the source's name)

Assay [1] deals with MDA-MB-231. Nature of the assay: Cytotoxicity against human MDA-MB-231 cells by SRB assay.
Assay [2] concerns A549. Nature of the assay: Cytotoxicity against human A549 cells by SRB assay. (In general: Sulforhodamine B stains cellular protein and so reports cell mass.)
The test system of assay [3] is HT-29. Nature of the assay: Cytotoxicity against human HT29 cells by SRB assay.

As for `COC1=C(Br)[C@H](O)[C@@]2(C=C1Br)CC(C(=O)NCCCCCNC(=O)C1=NO[C@]3(C=C(Br)C(OC)(OC)[C@@H](Br)[C@@H]3O)C1)=NO2`, the GI50 in assay [1] is 4.2 µM; in assay [2] it was 7.1 µM; in assay [3], 4.8 µM. Moreover, the TGI was 6 µM in assay [1], more than 10 µg/mL in assay [2] and more than 10 µg/mL in assay [3]. Further, the CC50 in assay [1] is 9.6 µM; in assay [2] it was more than 10 µg/mL; in assay [3], more than 10 µg/mL.

In the case of `O=C(NCCCCCNC(=O)C1=NO[C@]2(C=C(Br)C(=O)[C@H](Br)[C@@H]2O)C1)C1=NO[C@]2(C=C(Br)C(=O)[C@H](Br)[C@@H]2O)C1`, in assay [1], the GI50 was found to be 1.7 µM, the TGI came to 2.4 µM and the CC50 was 3.5 µM. Also, in assay [2], it took 2.4 µM to inhibit growth by half (GI50), net growth stopped (TGI) at 3.5 µM and the CC50 came to 5.5 µM. Also, in assay [3], the GI50 amounted to 1.6 µM, total growth inhibition (TGI) required 2.5 µM and the CC50 stood at 3.7 µM.

In the case of `COC1=C(Br)[C@H](O)[C@@]2(C=C1Br)CC(C(=O)NCCCCCNC(=O)C1=NO[C@]3(C=C(Br)C(=O)[C@H](Br)[C@@H]3O)C1)=NO2`, in assay [1], the GI50 was 3.5 µM, net growth stopped (TGI) at 4.9 µM and the CC50 was determined as 6.7 µM. For the same compound, in assay [2], it took 5.4 µM to inhibit growth by half (GI50), total growth inhibition (TGI) required 8.7 µM and the CC50 is 11.2 µM. Further, in assay [3], it took 4.8 µM to inhibit growth by half (GI50), total growth inhibition (TGI) required 5 µM and the CC50 amounted to 5.4 µM.

For the compound `COC1=C(Br)[C@H](O)[C@@]2(C=C1Br)CC(C(=O)NCCCCNC(=O)C1=NO[C@]3(C=C(Br)C(=O)[C@H](Br)[C@@H]3O)C1)=NO2`, in assay [1], the GI50 came to 2.9 µM, total growth inhibition (TGI) required 4.7 µM and the CC50 stood at 8 µM. In assay [2], the GI50 was 5.6 µM, the TGI is more than 10 µg/mL and the CC50 is more than 10 µg/mL. For the same compound, in assay [3], the GI50 came to 3.4 µM, total growth inhibition (TGI) required 4.9 µM and the CC50 is 8.5 µM.

Consider `COC1(OC)C(Br)=C[C@@]2(CC(C(=O)NCCCCCNC(=O)C3=NO[C@]4(C=C(Br)C(OC)(OC)[C@@H](Br)[C@@H]4O)C3)=NO2)[C@@H](O)[C@@H]1Br`, for which the GI50 in assay [1], in assay [2] and in assay [3] was more than 10 µg/mL each time. In addition, the TGI in assay [1], in assay [2] and in assay [3] was more than 10 µg/mL in each case. In addition, the CC50 in assay [1], in assay [2] and in assay [3] was more than 10 µg/mL throughout.

As to `COC1=C(Br)[C@H](O)[C@@]2(C=C1Br)CC(C(=O)NCCCCNC(=O)C1=NO[C@]3(C=C(Br)C(OC)=C(Br)[C@@H]3O)C1)=NO2` [AEROTHIONIN], the GI50 in assay [1], in assay [2] and in assay [3] was more than 10 µg/mL throughout. For the same compound, the TGI in assay [1], in assay [2] and in assay [3] was more than 10 µg/mL in each case. Also, the CC50 in assay [1], in assay [2] and in assay [3] was more than 10 µg/mL each time.

For the compound `COC1=C(Br)[C@H](O)[C@@]2(C=C1Br)CC(C(=O)NCCCCCNC(=O)C1=NO[C@]3(C=C(Br)C(=O)[C@@H](Br)[C@@H]3O)C1)=NO2` [APLYSINONE A], in assay [1], halving of growth (GI50) required 3.3 µM, total growth inhibition (TGI) required 5.4 µM and the CC50 worked out at 8.2 µM. Further, in assay [2], the GI50 was 4.5 µM, the TGI is 7.1 µM and the CC50 was more than 10 µg/mL. Further, in assay [3], it took 2.8 µM to inhibit growth by half (GI50), the TGI was determined as 4.8 µM and the CC50 is 9.1 µM.

In the case of `O=C(NCCCCCNC(=O)C1=NO[C@]2(C=C(Br)C(=O)[C@@H](Br)[C@@H]2O)C1)C1=NO[C@]2(C=C(Br)C(=O)[C@@H](Br)[C@@H]2O)C1` [APLYSINONE B], in assay [1], it took 1.6 µM to inhibit growth by half (GI50), the TGI stood at 2.1 µM and the CC50 was 3 µM. For the same compound, in assay [2], halving of growth (GI50) required 2 µM, the TGI was 2.9 µM and the CC50 is 4.1 µM. In addition, in assay [3], the GI50 was 1.5 µM, the TGI came to 2.1 µM and the CC50 was 3 µM.

`COC1=C(Br)[C@H](O)[C@@]2(C=C1Br)CC(C(=O)NCCCCCNC(=O)C1=NO[C@]3(C=C(Br)C(=O)[C@@H]4O[C@@H]43)C1)=NO2` [APLYSINONE C]: in assay [1], halving of growth (GI50) required 5.6 µM, net growth stopped (TGI) at 5.8 µM and the CC50 came to 6.4 µM. Moreover, in assay [2], halving of growth (GI50) required 10.7 µM, the TGI is more than 10 µg/mL and the CC50 was more than 10 µg/mL. In addition, in assay [3], the GI50 amounted to 12.6 µM, the TGI is more than 10 µg/mL and the CC50 is more than 10 µg/mL.

As for `COC1=C(Br)[C@H](O)[C@@]2(C=C1Br)CC(C(=O)NCCCCNC(=O)C1=NO[C@]3(C=C(Br)C(=O)[C@@H](Br)[C@@H]3O)C1)=NO2` [APLYSINONE D], in assay [1], halving of growth (GI50) required 3.5 µM, the TGI is 5 µM and the CC50 was found to be 7.6 µM. In addition, in assay [2], the GI50 was determined as 5.7 µM, the TGI was more than 10 µg/mL and the CC50 was more than 10 µg/mL. In assay [3], the GI50 stood at 4.1 µM, net growth stopped (TGI) at 5.2 µM and the CC50 was 11.3 µM.

Turning to `COc1cccc2c1C(=O)c1c(O)c3c(c(O)c1C2=O)C[C@@](O)(C(=O)CO)C[C@@H]3O[C@H]1C[C@H](N)[C@H](O)[C@H](C)O1` [DOXORUBICIN], in assay [1], the GI50 amounted to 0.1 µM, total growth inhibition (TGI) required 0.3 µM and the CC50 was 1.4 µM. In assay [2], halving of growth (GI50) required 0.1 µM, total growth inhibition (TGI) required 0.2 µM and the CC50 is 1 µM. Besides, in assay [3], halving of growth (GI50) required 0.1 µM, the TGI amounted to 0.3 µM and the CC50 worked out at 0.4 µM.

`COC1=C(Br)[C@H](O)[C@@]2(C=C1Br)CC(C(=O)NCCCCCNC(=O)C1=NO[C@]3(C=C(Br)C(OC)=C(Br)[C@@H]3O)C1)=NO2` [HOMOAEROTHIONIN]: in assay [1], the GI50 was more than 10 µg/mL, the TGI was more than 10 µg/mL and the CC50 is more than 10 µg/mL. Besides, in assay [2], the GI50 was more than 10 µg/mL, the TGI was more than 10 µg/mL and the CC50 was more than 10 µg/mL. Moreover, in assay [3], the GI50 is more than 10 µg/mL, the TGI is more than 10 µg/mL and the CC50 is more than 10 µg/mL.

A word on the GI50: it is the concentration that inhibits growth by half. Low readings indicate greater sensitivity of the cells, high ones lower sensitivity of the cells. By TGI is commonly meant the concentration at which net growth stops. High values mean lower sensitivity of the cells, low ones greater sensitivity of the cells.
